# From patent publication US7425418B2, “Compounds that modulate processes associated with IgE production” (Rigel Pharmaceuticals, Inc., priority 2002, dated 2008)
# T1: human RXR-β (hRXR-β) (Homo sapiens, UniProt P28702)
# T1 construct: expressed in transfected cells; prey cDNA from a library of the A5T4 reporter cell line (BJAB B-cells)
# T1 sequence (P28702 1-533): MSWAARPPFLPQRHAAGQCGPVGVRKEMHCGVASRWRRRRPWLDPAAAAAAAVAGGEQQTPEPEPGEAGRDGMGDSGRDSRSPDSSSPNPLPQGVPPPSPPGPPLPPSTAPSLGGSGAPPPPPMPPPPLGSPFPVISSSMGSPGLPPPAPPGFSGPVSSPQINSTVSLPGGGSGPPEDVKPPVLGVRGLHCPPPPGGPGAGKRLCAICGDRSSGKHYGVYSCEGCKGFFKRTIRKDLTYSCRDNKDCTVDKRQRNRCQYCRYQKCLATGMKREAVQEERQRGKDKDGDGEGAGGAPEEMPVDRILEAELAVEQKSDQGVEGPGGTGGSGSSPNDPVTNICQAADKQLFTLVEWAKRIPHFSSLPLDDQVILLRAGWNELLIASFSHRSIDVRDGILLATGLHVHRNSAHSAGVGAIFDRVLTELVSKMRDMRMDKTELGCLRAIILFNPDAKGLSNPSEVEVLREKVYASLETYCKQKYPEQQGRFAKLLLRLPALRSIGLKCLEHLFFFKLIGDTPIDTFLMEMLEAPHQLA
# T2: human retinoid X receptor beta (polypeptide encoded by prey clone CL06-stim-2) (human, UniProt P28702 1-533, limits assumed)
# T2 sequence (looked up): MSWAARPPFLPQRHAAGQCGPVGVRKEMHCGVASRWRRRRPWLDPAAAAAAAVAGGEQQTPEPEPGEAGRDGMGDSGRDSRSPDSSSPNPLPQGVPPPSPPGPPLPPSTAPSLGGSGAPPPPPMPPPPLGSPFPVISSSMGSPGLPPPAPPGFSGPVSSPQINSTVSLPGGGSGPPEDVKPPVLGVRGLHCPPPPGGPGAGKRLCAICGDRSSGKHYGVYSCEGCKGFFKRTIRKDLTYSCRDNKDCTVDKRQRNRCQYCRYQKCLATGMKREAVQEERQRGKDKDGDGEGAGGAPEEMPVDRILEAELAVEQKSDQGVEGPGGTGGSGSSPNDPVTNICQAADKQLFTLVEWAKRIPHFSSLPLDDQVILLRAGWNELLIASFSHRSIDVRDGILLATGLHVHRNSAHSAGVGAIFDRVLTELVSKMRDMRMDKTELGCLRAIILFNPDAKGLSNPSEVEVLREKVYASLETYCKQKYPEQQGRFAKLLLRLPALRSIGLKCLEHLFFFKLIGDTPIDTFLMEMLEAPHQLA
# B1: peptide CL06LC (MSAASYAHSYAA) (peptide)
# peptide: MSAASYAHSYAA
# notes: Dual alanine mutant of CL06wt (L, C to A, A); Yeast two-hybrid bait fusion and BFP fusion as for CL06wt
# B2: peptide CL06SY1 (MSLCAAAHSYAA) (peptide)
# peptide: MSLCAAAHSYAA
# notes: Dual alanine mutant of CL06wt (first S, Y to A, A); Yeast two-hybrid bait fusion and BFP fusion as for CL06wt
# Columns and labels:
# [1] = test system: germline ε promoter (A5T4 reporter line); assay: Retinoids contacted with IL-4 stimulated A5T4 reporter cells, inhibition of germline ε transcription; type: cell-based, human; settings: 0.03 μM, 0.3 μM, 3 μM and 30 μM, FIG. 12
# Experimental: IL-4 stimulated A5T4 reporter cells were contacted with varying concentrations of retinoids a-tRA, 13-cRA and 9-cRA (0.03 μM, 0.3 μM, 3 μM and 30 μM) as assessed for inhibition of germline ε transcription. DMSO and a compound known to inhibit germline ε transcription were tested as controls.
# germline ε transcription = settings: in vitro assays, literature; cited from earlier work
# IgE production = settings: in vitro assays, literature; cited from earlier work
# human RXR-β (hRXR-β) = biological target: T1, human RXR-β (hRXR-β); assay: β-galactosidase yeast two-hybrid (YTH) interaction assay; type: binding
# Experimental: Potential binding partners for peptide CL06wt were identified in a β-galactosidase yeast two-hybrid (YTH) assay using peptide CL06wt as bait and a cDNA library constructed from the A5T4 reporter cell line as prey. Binding was assessed by β-galactosidase quantification using BetaFluor (Novagen) as a substrate. A negative interaction control (no cDNA fused downstream of the GAL4 activation domain sequence) was also run. A general outline of the YTH assay is illustrated in FIG. 5A. Following clustering, filtering to remove non-specific bait hits (e.g., GFP and BFP), singletons and clusters recognized by 10 or more cDNA baits (based upon historical YTH assays), and prioritization, four prey clones were identified as hits, designated CL06-nonstim-7, CL06-stim-14, CL06-stim-15 and CL06-stim-2.
# The interaction of CL06wt peptide and its mutants with the clones identified as potential targets for the peptide CL06wt was then quantified in a β-galactosidase YTH assay. The YTH assay was performed in the manner described above. A general outline of this YTH assay is illustrated in FIG. 5B. […]
# The interaction of these IOF and LOF mutants with different polypeptides encoded by the clones CL06-nonstim-7, CL06-stim-14, CL06-stim-15 and CL06-stim-2 were quantified using the YTH assay described above. […]
# [2] = test system: IL-4 inducible germline ε promoter (A5T4 reporter cell line); assay: A5T4 reporter line screening assay: IL-4 induced germline ε promoter driving HBEGF2a/GFP reporter, peptide expressed retrovirally as BFP fusion, FACS; type: cell-based, human; settings: mutants categorised relative to CL06wt
# Text: Peptide CL06wt was identified by screening a retroviral library of random peptide 20-mers for the ability to inhibit IL-4 induced germline ε transcription using the HBEGF2a/diphtheria dual reporter phenotypic screening system described in WO 01/31232. To construct the random library, A5T4 reporter cells (described in more detail below) were infected with an infectious retroviral library of random peptide 20-mers (prepared as described in WO 97/27213; see also WO 01/34806 at page 39, line 36 through page 40, line 19). The retroviral vector used includes a gene encoding blue fluorescent protein (BFP) fused upstream of the region encoding the random peptide via a linker region encoding an α-helical peptide linker (expression fusion product is referred to as “BFP-peptide”). Expression of the BFP-peptide product is controlled by a promoter sensitive to the tetracyline-regulated transactivator such that expression of the BFP-peptide regulated by tetracycline (Tet) or doxycycline (Dox). […]
# Following infection, the library was enriched for cells expressing peptides that inhibit IL-4 induced ε transcription as generally outlined in the top half of FIG. 3 and sorted by FACS into single cell clones. […] After 5 days, both populations were stimulated with IL-4 (final conc. 60 U/mL; PeptroTech, Inc.) and, after 3 more days, both populations were analyzed by FACS to measure BFP and GFP fluorescence. […]
# [3] = test system: ST486 endogenous α promoter; assay: TAQMAN assay of endogenous germline α promoter transcription in TGF-β stimulated ST486 cells; type: cell-based; settings: TGF-β 40 ng/ml, average of 3 values, p=0.6867
# Experimental: The ability of peptide CL06wt to inhibit transcription of an endogenous germline ε promoter was confirmed using a TAQMAN® assay (Roche Molecular, Alameda, Calif.). Briefly, A5T4 cells were infected with retrovirus capable of expressing peptide CL06wt (prepared as described above). The cells were sorted for BFP^+ to select for infected cells. Infected cells were divided into two populations. One population was exposed to Dox (10 ng/ml). Both populations were stimulated with IL-4 (60 U/ml). After 3 days, the cells were pelleted and the pellets assayed for ε promoter transcription using a TAQMAN assay performed as described in Applied Biosystems Protocol 4310299 (available at http:www.appliedbiosystems.com). The primers and probe, which are specific for the transcription product driven by the A5T4 endogenous ε promoter, were as follows (the probe was labeled at the 5′-end with Fam and at the 3′-end with Tamra):
# The assay was similar to that described in the immediately preceding section, except that ST486 cells (ATCC # CRL-1647) engineered to express the tetracycline-regulated transactivator were infected and the infected cells were stimulated with TGF-β (40 ng/ml; Peprotech). The primers and probe, which are specific for the transcription product driven by the ST486 endogenous α promoter, were as follows (the probe was labeled at the 5′-end with Fam and at the 3′-end with Tamra): […]
# [4] = biological target: T2, human retinoid X receptor beta …; assay: cell-based or functional assay
# [5] = biological target: T2, human retinoid X receptor beta …; assay: beta-galactosidase yeast two-hybrid; CL06LC is a loss of function (L) mutant, hence category L (loss of interaction) with CL06-stim-2
# [6] = biological target: T2, human retinoid X receptor beta …; assay: cell-based or functional assay; remark: listed apart in the source
# [7] = biological target: T2, human retinoid X receptor beta …; assay: beta-galactosidase yeast two-hybrid; CL06SY1 is a loss of function (L) mutant, hence category L (loss of interaction) with CL06-stim-2
molecule,measurement,setting,value
"CC1=C(/C=C/C(C)=C\C=C\C(C)=C\C(=O)O)C(C)(C)CCC1 [Peptide 9-cRA, 9-cis RA]",inhibition of germline ε transcription,[1],inhibited germline ε transcription in a dose-dependent manner
"CC1=C(/C=C/C(C)=C/C=C/C(C)=C\C(=O)O)C(C)(C)CCC1 [Peptide 13-cRA, 13-cis-RA]",inhibition of germline ε transcription,germline ε transcription,inhibit both IgE production and germline ε transcription in a dose-dependent manner
same,inhibition of IgE production,IgE production,inhibit both IgE production and germline ε transcription in a dose-dependent manner
same,inhibition of germline ε transcription,[1],inhibited germline ε transcription in a dose-dependent manner
"CC1=C(/C=C/C(C)=C/C=C/C(C)=C/C(=O)O)C(C)(C)CCC1 [a-tRA, all-trans RA]",inhibition of germline ε transcription,germline ε transcription,inhibit both IgE production and germline ε transcription in a dose-dependent manner
same,inhibition of IgE production,IgE production,inhibit both IgE production and germline ε transcription in a dose-dependent manner
same,inhibition of germline ε transcription,[1],inhibited germline ε transcription in a dose-dependent manner
"AALCSYAHSYAA [CL06MS, dual alanine mutant of CL06wt]",binding to hRXR-β in yeast two hybrid interaction assay,human RXR-β (hRXR-β),found to bind
same,functional category based on reporter ratio,[2],IOF (An increase of function mutant (IOF) shows a >50% increase in reporter function)
"MSLCSYAHSYAA [CL06wt, 12-residue peptide identified from a retroviral random peptide library, expressed as BFP-peptide fusion]",endogenous a inhibition ratio,[3],0.93
same,binding to hRXR-β in yeast two hybrid interaction assay,human RXR-β (hRXR-β),found to bind
B1,"Reporter Ratio (A5T4 reporter line, IL-4 induced germline ε transcription)",[4],1.06
same,binding result,[5],no binding
MSLCSYAHSYAA [peptide CL06wt (MSLCSYAHSYAA)],"Reporter Ratio (A5T4 reporter line, IL-4 induced germline ε transcription)",[4],1.3
same,"endogenous ε inhibition ratio (TAQMAN assay, +IL-4/-Dox to +IL-4/+Dox)",[6],1.37
AALCSYAHSYAA [peptide CL06MS (AALCSYAHSYAA)],"Reporter Ratio (A5T4 reporter line, IL-4 induced germline ε transcription)",[4],1.56
B2,"Reporter Ratio (A5T4 reporter line, IL-4 induced germline ε transcription)",[4],1.09
same,binding result,[7],no binding
